Measurements reported in patent US5763435A, “Sulfate conjugates of ursodeoxycholic acid, and their beneficial use in inflammatory disorders” (priority 1995, dated 1998).
Where “and” joins values, the source holds several entries; their conditions need not be identical. Equal entries are not always repeated.

Legend:
[1] = system: bile acids secreted in bile; test: Biliary bile acid composition during i.v. infusion (GC-MS); format: in vivo, Sprague-Dawley rats; conditions: for Further hydroxylation (in words): GC-MS of bile
Protocol: (§1) Adult male Sprague-Dawley rats (body weight 200-230 g) were anesthetized by an intraperitoneal injection of pentobarbital (Nembutal, 7.5 mg/100 g body weight), and maintained under sedation by additional doses. The right jugular vein and the common bile duct were cannulated using PE-50 polyethylene tubing (Clay-Adams, Parsippany, N.J.). Body temperature was maintained throughout the experiment at 37° C. using a rectal probe and a thermostatically controlled heating pad (Harvard Apparatus Co., Inc., Millis, Mass.). Saline was infused at a rate of 1.0 ml/h using a Harvard pump (Harvard Apparatus Co., Inc.) into the jugular vein for a control period of 2h. After collecting two 10 minute bile samples for base-line analysis, the bile acids were individually infused intravenously (i.v.) for 30 minutes in stepwise increasing doses (0.5, 1.0, and 2.0 μmol/min/100 g body weight). Bile acid solutions were prepared in 3% human albumin in 0.45% saline. Six animals were used for each experiment and bile was collected every 10 minutes into preweighed tubes. At the end of the experiment, blood was obtained by cardiac puncture, and urine was obtained by aspiration of the bladder. All biological specimens were stored at -20° C. This animal study protocol (#1 B 10044) was approved by the Bioethics committee of the Children's Hospital Medical Center (Cincinnati, Ohio).
GC-MS was carried out on either a VG Autospec Q magnetic sector instrument or a Finnigan 4635 quadruple GC-MS-DS instrument housing identical GC columns and operated under the same chromatographic conditions. Electron ionization (70 eV) mass spectra were recorded over the mass range 50 to 1000 Da/e by repetitive scanning of the eluting components.
For the determination of hepatic biotransformation of the infused bile acid, bile collections from the six animal were pooled and biliary bile acids were determined by GC-MS after extraction, solvolysis, hydrolysis, and derivatization. Quantification of bile acids was achieved using GC, by comparing the peak height response of the individual bile acid with the peak height response obtained from the internal standard, nordeoxycholic acid added to the initial sample of bile. Identification of a bile acid was made on the basis of the retention index relative to a homologous series of n-alkanes, referred to as the methylene unit value (MU) and the fragmentation pattern of the mass spectrum was compared with authentic standards. A list of over 100 mass spectra of authentic bile acid standards and retention indices was recently compiled as a reference source (Lawson, A. M., et al, Mass spectrometry of bile acids, The Bile Acids, Vol. 4, Methods and Applications, pp. 167-267 (1988)).

biliary lipid secretion = test: Biliary lipid (cholesterol, phospholipid) secretion during i.v. infusion; format: in vivo, Sprague-Dawley rats; conditions: for Cholesterol output, maximal change / Phospholipid output, maximal change: mean ± SEM, six animals
Protocol: as §1
Bile volume was determined gravimetrically assuming a density of 1 g/ml. Total 3α-hydroxy bile acid concentration in the bile was measured enzymatically before solvolysis (nonsulfated bile acids) and after solvolysis (total bile acids) (Mashige, F., et al., Direct spectrometry of total bile acids in serum. Clin. Chem. 27: 1352-1356 (1981)). The bile acid output was calculated by multiplying the rate of bile-flow by the bile acid concentration. Biliary phospholipids were determined by an enzymatic procedure based on the choline oxidase method (Nippon Shoji Kaisha, Ltd., Osaka, Japan) (Grantz, D., et al., Enzymatic measurement of choline-containing phospholipids in bile. J. Lipid Res. 22: 273-276 (1981)). Cholesterol was also measured enzymatically (Boehringer Mannehim, Indianapolis, Ind.) (Fromm, H., et al., Use of a simple enzymatic assay for cholesterol analysis in human bile. J. Lipid Res. 21: 259-261 (1980)).
Results were expressed as mean±standard error of mean (SEM). Bile-flow and biliary lipid output were expressed as μl /min/g liver and nmol/min/g liver, respectively. Statistical analysis was made using INSTAT program (Graphpad Software Inc., San Diego, Calif.). Parametric data among groups were analyzed using Student's t-test. The statistical comparisons between the different groups were made by one-way analysis of variance (ANOVA). […] Linear regression analysis was performed. The choleretic activity of each bile acid was determined from the slope of regression line of the correlation between the bile acid secretion rate and bile-flow and was expressed as […]. Comparisons between slopes were made by one-way ANOVA.

SMILES | Relative % composition in bile: CA ([1]; 20-30 mins) | Relative % composition in bile: CDCA ([1]; 20-30 mins) | Relative % composition in bile: DCA ([1]; 20-30 mins) | Relative % composition in bile: MCA ([1]; 20-30 mins) | Relative % composition in bile: UDCA ([1]; 20-30 mins) | Relative % composition in bile: α-MCA ([1]; 20-30 mins) | Relative % composition in bile: β-MCA ([1]; 20-30 mins) | Relative % composition in bile: CA ([1]; 50-60 mins) | Relative % composition in bile: CDCA ([1]; 50-60 mins) | Relative % composition in bile: DCA ([1]; 50-60 mins) | Relative % composition in bile: MCA ([1]; 50-60 mins) | Relative % composition in bile: UDCA ([1]; 50-60 mins) | Relative % composition in bile: α-MCA ([1]; 50-60 mins) | Relative % composition in bile: β-MCA ([1]; 50-60 mins) | Relative % composition in bile: CA ([1]; 80-90 mins) | Relative % composition in bile: CDCA ([1]; 80-90 mins) | Relative % composition in bile: UDCA ([1]; 80-90 mins) | Relative % composition in bile: α-MCA ([1]; 80-90 mins) | Relative % composition in bile: β-MCA ([1]; 80-90 mins) | Further hydroxylation (in words) [1] | further results
C[C@H](CCC(=O)O)[C@H]1CC[C@H]2[C@@H]3[C@@H](OS(=O)(=O)O)C[C@@H]4C[C@H](OS(=O)(=O)O)CC[C@]4(C)[C@H]3CC[C@]12C [UDCA-DS, ursodeoxycholic acid 3,7-disulfate] | 24.5% | 2.5% | 2.1% | 3.2% | 54.6% | 3.4% | 9.7% | 15.3% | 0.7% | 1.2% | 2.2% | 70.7% | 2.2% | 6.7% | 10.6% | 0.9% | 79.1% | 2.6% | 6.5% | neither UDCA-7S nor UDCA-disulfatewere hydroxylated | Relative % composition in bile: MCA ([1]; 80-90 mins): 1.4%; Biliary cholesterol secretion (in words) (biliary lipid secretion): significantly reduced the biliary cholesterol output; Biliary phospholipid secretion (in words) (biliary lipid secretion): significant reduction in biliary phospholipids; Cholesterol output, maximal change (biliary lipid secretion): 0.37 ± 0.07 nmol/min/g liver and 0.37±0.12 nmol/min/g liver; Phospholipid output, maximal change (biliary lipid secretion): 2.50 ± 0.30 nmol/min/g liver
C[C@H](CCC(=O)O)[C@H]1CC[C@H]2[C@@H]3[C@@H](O)C[C@@H]4C[C@H](O)CC[C@]4(C)[C@H]3CC[C@]12C [UDCA, 3 alpha, 7 beta-dihydroxy-5 beta-cholan-24oic acid, reference compound] | 49.0% | 3.0% | 1.0% | 1.0% | 51.9% | 4.3% | 17.2% | 21.4% | 2.5% | 0.5% | 0.5% | 65.9% | 3.9% | 12.6% | 9.8% | 1.5% | 79.5% | 6.4% | 9.9% | metabolized by further hydroxylation, most probably in the side-chain | Relative % composition in bile: others ([1]; 20-30 mins): 14.6%; Relative % composition in bile: others ([1]; 50-60 mins): 13.7%; Relative % composition in bile: DCA ([1]; 80-90 mins): 0.7%; Relative % composition in bile: others ([1]; 80-90 mins): 11.9%; Biliary cholesterol secretion (in words) (biliary lipid secretion): significant decline; Biliary phospholipid secretion (in words) (biliary lipid secretion): increased significantly; Cholesterol output, maximal change (biliary lipid secretion): 1.88 ± 0.19 nmol/min/g liver; Phospholipid output, maximal change (biliary lipid secretion): 17.20 ± 1.90 nmol/min/g liver
C[C@H](CCC(=O)O)[C@H]1CC[C@H]2[C@@H]3[C@@H](OS(=O)(=O)O)C[C@@H]4C[C@H](O)CC[C@]4(C)[C@H]3CC[C@]12C [UDCA-7S, ursodeoxycholic acid 7-sulfate] | 20.2% | 1.7% | 2.3% | 1.3% | 61.3% | 2.5% | 10.7% | 7.7% | 0.6% | 0.7% | 0.6% | 83.6% | 0.9% | 5.9% | 9.9% | 0.7% | 78.8% | 1.3% | 7.4% | neither UDCA-7S nor UDCA-disulfatewere hydroxylated | Relative % composition in bile: DCA ([1]; 80-90 mins): 1.2%; Relative % composition in bile: MCA ([1]; 80-90 mins): 0.8%; Biliary cholesterol secretion (in words) (biliary lipid secretion): cholesterol secretion was maintained; Biliary phospholipid secretion (in words) (biliary lipid secretion): increased significantly; Cholesterol output, maximal change (biliary lipid secretion): 1.76 ± 0.23 nmol/min/g liver and 1.76±0.21 nmol/min/g liver; Phospholipid output, maximal change (biliary lipid secretion): 15.00 ± 1.70 nmol/min/g liver
C[C@H](CCC(=O)O)[C@H]1CC[C@H]2[C@@H]3[C@@H](O)C[C@@H]4C[C@H](OS(=O)(=O)O)CC[C@]4(C)[C@H]3CC[C@]12C [UDCA-3S, ursodeoxycholic acid 3-sulfate] | 36.0% | 4.6% | 2.5% | 4.9% | 33.3% | 6.2% | 12.4% | 14.9% | 1.9% | 1.0% | 1.5% | 70.6% | 2.7% | 7.4% | 18.2% | 2.5% | 67.7% | 3.0% | 5.2% | metabolized by further hydroxylation, most probably in the side-chain | Relative % composition in bile: others ([1]; 20-30 mins): 5.2%; Relative % composition in bile: others ([1]; 50-60 mins): 11.5%; Relative % composition in bile: DCA ([1]; 80-90 mins): 1.3%; Relative % composition in bile: MCA ([1]; 80-90 mins): 2.0%; Relative % composition in bile: others ([1]; 80-90 mins): 11.2%; Biliary cholesterol secretion (in words) (biliary lipid secretion): significantly reduced the biliary cholesterol output; Biliary phospholipid secretion (in words) (biliary lipid secretion): significant reduction in biliary phospholipids; Cholesterol output, maximal change (biliary lipid secretion): 0.40 ± 0.02 nmol/min/g liver and 0.40±0.05 nmol/min/g liver; Phospholipid output, maximal change (biliary lipid secretion): 4.00 ± 0.50 nmol/min/g liver
